Measurements published in US20110015278A1, “PHYTOL AS A CHOLESTEROL LOWERING AGENT” (priority 2008, published 2011).

Legend:
humans = details: 10% concentration (Kligman, 1966; Kligman & Epstein, 1975); cited from earlier work
obese (ob/ob) mice = test: Phytol treatment obese (ob/ob) mice, serum cholesterol (Example 4); type: in vivo, mouse; details: 0.75 weight percentage phytol mixed in the food, during 5 weeks, vs untreated mice, p<0.001
Experimental: FIG. 4 is a graph comparing the cholesterol lowering effect of phytol in obese ob/ob mice. The mice were treated with oral administration of phytol 0.75% weight evenly distributed in powdered chow.
Cholesterol lowering effect after oral administration of phytol was validated in serum from obese (ob/ob) mice treated with phytol. Phytol (FIG. 4; black circles) was administrated to the mice at 0.75 weight percentage phytol mixed in the food. Analysis was made in comparison with control (FIG. 4; open circles) untreated mice.

[1] = cited from earlier work
healthy pigs [2] = test: Phytol treatment healthy pigs, increasing dose, serum triglycerides (Example 3); type: in vivo, pig; details: vs corn oil control
Experimental: FIG. 3 is a graph showing the effect of increased dose of phytol in pigs. The pigs were treated with oral administration of 1.25; 2.5; 5 and 10 g phytol daily for two weeks, respectively.
Triglyceride lowering effect after oral administration of phytol was validated in serum from healthy pigs treated with phytol. Phytol (FIG. 3.; black circles) was administrated to pigs at 1.25, 2.5, 5 and 10 g phytol daily. Analysis was made in comparison with control (FIG. 3.; open circles) pigs given corn oil as control.

rabbits = details: cited from earlier work
rats [3] = details: cited from earlier work
[4] = system: mouse teratogenesis models; details: mouse teratogenesis models (Arnhold et al., 2002); cited from earlier work
[5] = one Refsum's disease patient, 72 mg tritium labelled phytol orally after overnight fasting (Kahlke & Wagener, 1966); cited from earlier work
healthy rats [6] = test: Phytol treatment healthy rats, serum triglycerides and cholesterol (Example 1); type: in vivo, rat; details: 1 weight percentage phytol mixed in the food, after 4 days, vs untreated rats
Experimental: FIG. 1 is a graph comparing the triglyceride and cholesterol lowering effect of phytol in rats. The rats were treated with oral administration of phytol at 125 mg daily.
(§1) Triglyceride and cholesterol lowering effect after oral administration of phytol was validated in serum from healthy rats treated with phytol. Phytol (FIG. 1; black bars) was administrated to rats at 1 weight percentage phytol mixed in the food. Analysis was made in comparison with control (FIG. 1; white bars) untreated rats.

healthy rats [7] = test: Phytol treatment healthy rats, serum cholesterol and LDL-cholesterol, thirty days (Example 5); type: in vivo, rat; details: 1 weight percentage phytol in the food
Experimental: FIG. 5 is a graph comparing the cholesterol and LDL-Cholesterol lowering effect of phytol in rats. The rats were treated with oral administration of phytol at 1% weight evenly distributed in powdered chow.
as §1, with “Cholesterol” for “Triglyceride”, “LDL-Cholesterol” for “cholesterol”, “5;” for “1;”, “food for thirty days.” for “food.”

healthy pigs [8] = test: Phytol treatment healthy pigs, serum triglycerides and cholesterol (Example 2); type: in vivo, pig; details: 10 g phytol daily mixed in the food, after 1 wk, vs untreated pigs
Experimental: FIG. 2 is a graph comparing the triglyceride and cholesterol lowering effect of phytol in pigs. The pigs were treated with oral administration of phytol at 10 g daily.
Triglyceride and cholesterol lowering effect after oral administration of phytol was validated in serum from healthy pigs treated with phytol. Phytol (FIG. 2.; black bars) was administrated to pigs at 10 g phytol daily mixed in the food. Analysis was made in comparison with control (FIG. 2.; white bars) untreated pigs.

healthy rats [9] = test: Phytol treatment healthy rats, 400 mg every second day, serum cholesterol and LDL-cholesterol (Example 7); type: in vivo, rat; details: 400 mg phytol every second day, after three weeks, vs untreated rats
Experimental: FIG. 7 is a graph comparing the cholesterol and LDL-Cholesterol lowering effect of Phytol in rats. The rats were treated with oral administration of phytol at 400 mg every second day for three weeks.
Cholesterol and LDL-Cholesterol lowering effect after oral administration of phytol was validated in serum from healthy rats treated with phytol. Phytol (FIG. 7; black bars) was administrated to rats at 400 mg phytol administered every second day for three weeks. Analysis was made in comparison with control (FIG. 7; white bars) untreated rats.

healthy mice = test: Phytol treatment healthy mice, serum cholesterol and LDL-cholesterol (Example 6); type: in vivo, mouse; details: 1 weight percentage phytol in the food, after thirty days, vs untreated mice
Experimental: FIG. 6 is a graph comparing the cholesterol and LDL-Cholesterol lowering effect of phytol in mice. The mice were treated with oral administration of phytol at 1% weight evenly distributed in powdered chow.
as §1, with “Cholesterol” for “Triglyceride”, “LDL-Cholesterol” for “cholesterol”, “mice” for “rats”, “6;” for “1;”, “food for thirty days.” for “food.”, “mice.” for “rats.”

rats [10] = details: rats fed 0.5% phytol in the diet for 15 months (Steinberg et al., 1966); cited from earlier work
[11] = cited from earlier work; remark: listed apart in the source
adult mice = details: cited from earlier work
3T3-L1 cells = 3T3-L1 cells (Schluter et al., 2002); cited from earlier work
[12] = system: RXR (retinoid X receptor); details: cited from earlier work
PPARα = molecular target: T1, PPARα (Homo sapiens, UniProt Q07869); details: cited from earlier work
T1 sequence (Q07869 1-468): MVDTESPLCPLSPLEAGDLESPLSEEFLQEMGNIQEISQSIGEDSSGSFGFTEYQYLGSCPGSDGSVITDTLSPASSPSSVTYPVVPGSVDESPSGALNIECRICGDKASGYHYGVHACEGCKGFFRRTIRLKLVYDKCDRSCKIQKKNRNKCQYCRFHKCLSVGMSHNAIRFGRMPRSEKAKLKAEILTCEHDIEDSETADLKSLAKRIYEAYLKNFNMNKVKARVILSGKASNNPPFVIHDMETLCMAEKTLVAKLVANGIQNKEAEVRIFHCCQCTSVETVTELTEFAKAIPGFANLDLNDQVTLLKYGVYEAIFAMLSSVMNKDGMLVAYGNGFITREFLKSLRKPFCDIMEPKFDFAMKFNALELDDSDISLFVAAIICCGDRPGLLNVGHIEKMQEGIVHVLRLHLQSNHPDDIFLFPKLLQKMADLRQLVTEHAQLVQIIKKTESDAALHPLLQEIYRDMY

hepatocytes = details: EP 1177789; cited from earlier work
[13] = phytol given as chlorophyll; cited from earlier work
[14] = after ten days, vs untreated rats, p<0.0001
[15] = after three weeks of phytol feeding

## C/C(=C\CO)CCCC(C)CCCC(C)CCCC(C)C (stereo not drawn) [phytol, 3,7,11,15-Tetramethyl-hexadec-2-en-1-ol]
humans
  irritation: no irritation
Obese (ob/ob) mice
  serum levels of cholesterol: significantly reduced
[1]; rat, oral administration (Baxter & Steinberg, 1967)
  capacity to absorb into the intestinal lymphatic: ≤ 0.2 g phytol/kg bodyweight
[1]; rat, oral administration
  time of transportation into the intestinal lymphatic after administration: ≤ 20 h
[1]; rat, oral, phytol mixed with bile salts
  absorption when mixed with bile salts prior to administration: absorption increases
[1]; rat, oral
  orally administered phytol absorbed: More than 50%
  share of absorbed phytol absorbed via the intestinal lymphatics: more than 70%
[1]; rats fed 5% phytol (Mize et al., 1966)
  absorption and degradation: capacity to rapidly absorb and degrade phytol
[1]; rats, oral
  absorbed, of administered dose: 30-66 % of administered dose
Healthy pigs [2]; 2.5 g phytol per day oral, p<0.05
  serum levels of triglycerides: significantly reduced
Healthy pigs [2]; 5 g phytol per day oral, p<0.01
  serum levels of triglycerides: significantly reduced
Healthy pigs [2]; 10 g phytol per day oral, p<0.001
  serum levels of triglycerides: significantly reduced
rabbits
  acute dermal LD50: exceed 5 g/kg
Rats [3]
  acute oral LD50: exceed 5 g/kg
[4]
  vitamin A (retinol) induced teratogenic effects: able to prevent
[5]
  principal carriers of phytol in plasma: Plasma cholesterol esters and triglycerides
Healthy rats [6]; p<0.001
  serum levels of cholesterol: significantly reduced
Healthy rats [6]; p<0.05
  serum levels of triglycerides: significantly reduced
Healthy rats [7]; [14]
  serum LDL-cholesterol: significantly reduced
  serum cholesterol: significantly reduced
Healthy rats [7]; after thirty days
  serum LDL-cholesterol: even more reduced
Healthy pigs [8]; p<0.01
  serum levels of triglycerides: significantly reduced
Healthy pigs [8]; p<0.05
  serum levels of cholesterol: significantly reduced
Healthy rats [9]; p<0.001
  serum LDL-cholesterol: significantly reduced
Healthy rats [9]; p<0.05
  serum cholesterol: significantly reduced
Healthy mice; p<0.01
  serum LDL-cholesterol: significantly reduced
Healthy mice; p=0.05
  serum cholesterol: significantly reduced
Rats [10]
  growth inhibition or toxicity: No evidence of growth inhibition or toxicity
[11]; after withdrawal of dietary phytol
  serum and liver values of accumulated phytol after phytol is subtracted from the food: drops rapidly
[11]; at the 1% level in the food
  distribution to the livers: no phytol was distributed to the livers
[11]; dietary phytol at doses 1-5% in the food, rat, mouse, rabbit and chinchillas (Steinberg et al., 1966)
  accumulation in tissues: accumulation in both liver and serum
Adult mice; [15]
  serum cholesterol levels: remained unaffected
  serum triglyceride levels: decreased
Adult mice; enhanced supply of phytol in the diet (Van den Branden et al., 1986)
  hepatic peroxisomes: proliferation of hepatic peroxisomes

## CC(C)CCCC(C)CCCC(C)CCCC(C)CC(=O)O (stereo not drawn) [phytanic acid]
3T3-L1 cells
  AP2 mRNA: activates AP2 mRNA
[12]; Kitareewan et al., 1996
  RXR (retinoid X receptor) activator: activator
[12]; in vitro
  activation of RXR in vitro (postulated): activate
[4]
  vitamin A (retinol) induced teratogenic effects: able to prevent
PPARα
  activation of PPARα in vitro (postulated): activate
hepatocytes
  transcription of the genes for glucose transporters and glucokinase: increase and stimulate the transcription
  uptake of glucose in hepatocytes: increased uptake of glucose

## chlorophyll
[13]
  absorption of phytol compared to when given as pure phytol: much lower
